Assay results reported in ChEMBL document CHEMBL1201862, “PubChem BioAssay data set” (2004).
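Dose response: 5 concentrations. Exposure: 48 h. Format: 96-well plates. Endpoint: linear interpolation; highest concentration if not reached. GI50 marks 50% less growth.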 Activity calls are given as the source filed them. No stated cut-off is given here; in the data, active = GI50 up to about 1.1 µM and inactive = higher.

Assays:
Test in all cases: inhibition of tumour cell growth, NCI panel, 48 h
[1] = test system: LXFL 529
[2] = test system: KM-20L2
[3] = test system: XF498
[4] = test system: SNB-78
[5] = test system: HOP-18
[6] = test system: DMS-273
[7] = test system: DMS-114
[8] = test system: DLD-1
[9] = test system: RXF 631

Row | Structure (SMILES) | GI50 [1] | GI50 [2] | GI50 [3] | GI50 [4] | GI50 [5] | GI50 [6] | GI50 [7] | GI50 [8] | GI50 [9]
1 | COc1ccc(/C=C2\CCCCC2=O)cc1 | > 100 µM (inactive) | > 100 µM (inactive) | > 100 µM (inactive) | > 100 µM (inactive) | > 100 µM (inactive) | > 100 µM (inactive) | > 100 µM (inactive) | > 100 µM (inactive) | 
2 | O=C1/C(=C/c2ccccc2)CN(C(=O)Oc2ccc([N+](=O)[O-])cc2)C/C1=C\c1ccccc1 | 2.02 µM (inactive) | 4.69 µM (inactive) | > 10 µM (inactive) | 5.16 µM (inactive) | > 10 µM (inactive) | 0.883 µM (active) | 2.11 µM (inactive) | 1.79 µM (inactive) | 
3 | O=c1[nH]c2cc([N+](=O)[O-])ccc2nc1/C(=N/Nc1ccccc1)C(O)c1ccccc1Cl (stereo not given) | 28.1 µM (inactive) | 14.9 µM (inactive) | > 100 µM (inactive) | > 100 µM (inactive) |  | 34.8 µM (inactive) | 6.75 µM (inactive) | > 100 µM (inactive) | 
4 | COc1cccc(C2c3cc4c(cc3OC(O)(CO)C2C(=O)O)OCO4)c1.COc1cccc(C2c3cc4c(cc3OC3(O)COC(=O)C23)OCO4)c1 (stereo not given) | 57.9 µM (inactive) | > 100 µM (inactive) |  |  | > 100 µM (inactive) | 65.3 µM (inactive) | 49.4 µM (inactive) | 48.9 µM (inactive) | 75.5 µM (inactive)
5 | C=CCn1c(=S)sc2c(C(=O)OCC)c3c(C)cc(C)cn3c2c1=O | > 100 µM (inactive) | > 100 µM (inactive) |  | > 100 µM (inactive) |  | > 100 µM (inactive) |  | > 100 µM (inactive) | 
6 | COc1ccccc1NC(=O)C(CC(C(=O)Nc1ccccc1OC)/C(C)=N/NC(=O)c1ccccc1O)/C(C)=N/NC(=O)c1ccccc1O (stereo not given) | 66.4 µM (inactive) | > 100 µM (inactive) | > 100 µM (inactive) | > 100 µM (inactive) |  | > 100 µM (inactive) | 70.8 µM (inactive) | 57.5 µM (inactive) | 69.8 µM (inactive)
7 | CC(=O)N1CCc2[nH]c3ccccc3c2CC1 | > 100 µM (inactive) | > 100 µM (inactive) | > 100 µM (inactive) | > 100 µM (inactive) | 86.9 µM (inactive) | > 100 µM (inactive) | > 100 µM (inactive) | > 100 µM (inactive) | > 100 µM (inactive)
8 | O=[N+]([O-])c1ccc(-c2ccc(/C=N/n3c(S)nnc3-c3ccc(Cl)cc3)o2)cc1 | 22.5 µM (inactive) | 28 µM (inactive) | 19.5 µM (inactive) | > 50.6 µM (inactive) | > 100 µM (inactive) | 22.9 µM (inactive) | 95.3 µM (inactive) | 41.6 µM (inactive) | > 37.4 µM (inactive)
9 | Cc1cc(CC(O)c2ccc(Cl)c(Cl)c2)nc(O)n1 (stereo not given) | 20.9 µM (inactive) | 51.1 µM (inactive) | 18.4 µM (inactive) | 76.2 µM (inactive) |  |  | 8.49 µM (inactive) | 18.7 µM (inactive) | 
10 | O=[N+]([O-])c1cccc(C2=NN(c3ccccc3)C3c4ccccc4OCC23)c1 (stereo not given) | > 100 µM (inactive) | > 100 µM (inactive) | > 100 µM (inactive) | > 100 µM (inactive) | > 100 µM (inactive) | > 100 µM (inactive) | > 100 µM (inactive) | > 100 µM (inactive) | > 100 µM (inactive)
11 | Cc1ccc(Nc2nc(-c3ccc(-c4ccc([N+](=O)[O-])cc4)o3)cs2)cc1 | 29.3 µM (inactive) | 29.6 µM (inactive) |  | 66.5 µM (inactive) |  | 42.6 µM (inactive) |  | 41.4 µM (inactive) | 
12 | Cc1cc(N(CCC#N)CCC#N)ccc1/C=C/C(=O)Nc1cccc(Cl)c1 | 29.7 µM (inactive) | 87.1 µM (inactive) | > 100 µM (inactive) |  |  | > 100 µM (inactive) | > 100 µM (inactive) | > 100 µM (inactive) | > 100 µM (inactive)
13 | Cc1nc(NC(=S)NC(=O)c2ccc(Cl)c(Cl)c2)sc1C(=O)/C=C/c1ccccc1[N+](=O)[O-] | 21.6 µM (inactive) | 18.6 µM (inactive) | 20.6 µM (inactive) | 30.1 µM (inactive) | 12.4 µM (inactive) | 20.9 µM (inactive) |  | 48.9 µM (inactive) | 24.1 µM (inactive)
14 | CCOC(=O)C(=O)Nc1c(F)cc(F)cc1Br | > 100 µM (inactive) | > 100 µM (inactive) | > 100 µM (inactive) | > 100 µM (inactive) |  |  | > 100 µM (inactive) | > 100 µM (inactive) | 
15 | CCc1cccc(C(C)CC)c1NC(=O)C(=O)C(CC(=O)Nc1ccc(Cl)c(Cl)c1)C(=O)OC (stereo not given) | 16.7 µM (inactive) | 19.8 µM (inactive) |  | > 100 µM (inactive) |  | 15.9 µM (inactive) | 36.8 µM (inactive) | > 100 µM (inactive) | 
16 | O=C(O)C#CCO | > 100 µM (inactive) |  | > 100 µM (inactive) | > 100 µM (inactive) |  | > 100 µM (inactive) | > 100 µM (inactive) |  | > 100 µM (inactive)
17 | N=C(N)NS(=O)(=O)c1ccc(NC(=O)c2cccc3c(Nc4ccc(S(=O)(=O)N=C(N)N)cc4)c4ccc(Cl)cc4nc23)cc1 | 33 µM (inactive) | 74.8 µM (inactive) | 67.3 µM (inactive) | 81.3 µM (inactive) | > 100 µM (inactive) | > 100 µM (inactive) | 31.2 µM (inactive) | 67.1 µM (inactive) | 
18 | CN(C)CCCN1N=Nc2cccc3cccc1c23 | > 50.9 µM (inactive) | 54.3 µM (inactive) | 86.9 µM (inactive) | 62.4 µM (inactive) | 99.3 µM (inactive) | 19.4 µM (inactive) | > 42.1 µM (inactive) | > 60.1 µM (inactive) | 87.5 µM (inactive)
19 | CC(Cn1c2c3ccccc3ccc2c2oc(=O)c3ccccc3c21)N(C)C (stereo not given) | > 100 µM (inactive) | > 100 µM (inactive) | > 100 µM (inactive) | > 100 µM (inactive) |  |  | > 100 µM (inactive) | > 100 µM (inactive) | 
20 | CCC(/C=C/C1OC(=O)C=CC1C)=C\C(C)C/C=C/C(C)=C/C(C)C(=O)C(C)C(O)C(C)C/C(C)=C/C(=O)O (stereo not given) |  | 4.13 µM (inactive) |  | 3.21 µM (inactive) | 6.04 µM (inactive) | 1.1 µM (active) | 0.847 µM (active) | 1.43 µM (inactive) | 
21 | O=C1C(Br)=CC2(C=C1Br)CCNC1=C2C(=O)c2ccccc2C1=O | 5.37 µM (inactive) | 7.41 µM (inactive) |  | 11.2 µM (inactive) | 32.2 µM (inactive) |  | 5.7 µM (inactive) | 9.25 µM (inactive) | 5.69 µM (inactive)
22 | Nc1ncnc2c1ncn2CCCC(c1ccccc1)P(=O)(O)O (stereo not given) | > 100 µM (inactive) | > 100 µM (inactive) | > 100 µM (inactive) | > 100 µM (inactive) |  | > 100 µM (inactive) | > 100 µM (inactive) | > 100 µM (inactive) | 
23 | COC(=O)C(c1ccc(OC)cc1)N1C(=O)[C@@H](NC(=O)c2ccccc2)[C@H]1[C@@H](C)O (stereo not given in full) | > 100 µM (inactive) | > 100 µM (inactive) | > 100 µM (inactive) | > 100 µM (inactive) |  | > 100 µM (inactive) |  | > 100 µM (inactive) | 
24 | CC(=O)OCC1OC(OC2CC3C(C)(C)C(OC(C)=O)CC[C@]3(C)C3CCC45CC4(CC[C@H]5C(C)CC(O)C4OC4(C)C)[C@]23C)C(O)C(O)C1O (stereo not given in full) | 3.11 µM (inactive) | 1.85 µM (inactive) | 1.53 µM (inactive) | 5.71 µM (inactive) | 2.2 µM (inactive) | 1.99 µM (inactive) | 1.58 µM (inactive) | 1.79 µM (inactive) | 2.32 µM (inactive)
25 | COC(OC)[C@@H](C)[C@H](O)[C@](C)(O)C1OC(C)(C)OC(C(C)C=C(C)C)C1C (stereo not given in full) | > 100 µM (inactive) | > 100 µM (inactive) | > 100 µM (inactive) | > 100 µM (inactive) | > 100 µM (inactive) | > 100 µM (inactive) | 94.6 µM (inactive) | > 100 µM (inactive) | 
26 | CC1(C)CC[C@]2(C(=O)O)CCC3(C)C(=CCC4[C@@]5(C)CC[C@H](OC6OCC(O)C(O)C6OC6OC(CO)C(O)C(O)C6O)C(C)(C)C5CC[C@]43C)C2C1 (stereo not given in full) | 1.9 µM (inactive) | 2.02 µM (inactive) | 1.94 µM (inactive) | 2.76 µM (inactive) | 1.95 µM (inactive) | 2.06 µM (inactive) | 2.04 µM (inactive) | 8.61 µM (inactive) | 1.74 µM (inactive)
27 | COc1ccc2c(=O)c(-c3cc(OC)c(OC)cc3OC)coc2c1 | 6.27 µM (inactive) | 2.05 µM (inactive) | 2.58 µM (inactive) | 4.21 µM (inactive) |  | 1.85 µM (inactive) | 3.02 µM (inactive) | 3.95 µM (inactive) | 5.4 µM (inactive)
28 | CSc1ccc2c(cc1=O)[C@@H](NC(=O)c1ccc(F)cc1)CCc1cc(O)c(O)c(O)c1-2 | > 100 µM (inactive) | > 100 µM (inactive) |  | > 100 µM (inactive) | > 100 µM (inactive) | > 100 µM (inactive) | > 100 µM (inactive) | > 100 µM (inactive) | > 100 µM (inactive)
